Reference: the NIST ThermoML archive (doi:10.1016/j.jct.2007.07.005)
Numbers after ± are expanded uncertainties.

Assay: xn = mol fraction of the nth substance listed
Conditions: Fluid (supercritical or subcritical phases), vibrating tube

CCCCCO [pentan-1-ol] + O=C=O
Conditions	mass density [kg/m3]
342.87 K, 20033 kPa, x2 = 0.4651	814.31 ± 0.45
342.87 K, 21025 kPa, x2 = 0.4651	815.82 ± 0.45
342.87 K, 21037 kPa, x2 = 0.3624	811.12 ± 0.45
342.87 K, 21039 kPa, x2 = 0.7274	812.39 ± 0.46
342.87 K, 21983 kPa, x2 = 0.4651	817.26 ± 0.45
342.87 K, 21990 kPa, x2 = 0.3624	812.11 ± 0.45
342.87 K, 22001 kPa, x2 = 0.7274	815.49 ± 0.46
342.87 K, 23014 kPa, x2 = 0.4651	818.77 ± 0.45
342.87 K, 23015 kPa, x2 = 0.7274	818.69 ± 0.46
342.87 K, 23033 kPa, x2 = 0.3624	813.18 ± 0.45
342.87 K, 24005 kPa, x2 = 0.3624	814.16 ± 0.45
342.87 K, 24023 kPa, x2 = 0.4651	820.23 ± 0.45
342.87 K, 24099 kPa, x2 = 0.7274	821.95 ± 0.46
342.87 K, 25028 kPa, x2 = 0.3624	815.18 ± 0.45
342.88 K, 3034 kPa, x2 = 0.0816	781.33 ± 0.43
342.88 K, 4000 kPa, x2 = 0.0816	782.24 ± 0.43
342.88 K, 4969 kPa, x2 = 0.0816	783.19 ± 0.44
342.88 K, 5981 kPa, x2 = 0.0816	784.14 ± 0.44
342.88 K, 7023 kPa, x2 = 0.0816	785.12 ± 0.44
342.88 K, 8012 kPa, x2 = 0.0816	786.04 ± 0.44
342.88 K, 9030 kPa, x2 = 0.0816	786.97 ± 0.44
342.88 K, 10026 kPa, x2 = 0.0816	787.86 ± 0.44
342.88 K, 10992 kPa, x2 = 0.0816	788.72 ± 0.44
342.88 K, 11981 kPa, x2 = 0.0816	789.59 ± 0.44
342.88 K, 13062 kPa, x2 = 0.0816	790.54 ± 0.44
342.88 K, 14001 kPa, x2 = 0.9216	654.38 ± 0.75
342.88 K, 14013 kPa, x2 = 0.0816	791.33 ± 0.44
342.88 K, 15014 kPa, x2 = 0.9216	679.88 ± 0.73
342.88 K, 15025 kPa, x2 = 0.0816	792.19 ± 0.44
342.88 K, 15995 kPa, x2 = 0.0816	793.03 ± 0.44
342.88 K, 16009 kPa, x2 = 0.9216	699.02 ± 0.66
342.88 K, 16999 kPa, x2 = 0.0816	793.86 ± 0.44
342.88 K, 17032 kPa, x2 = 0.9216	715.18 ± 0.61
342.88 K, 18002 kPa, x2 = 0.9216	728.34 ± 0.58
342.88 K, 18009 kPa, x2 = 0.0816	794.69 ± 0.45
342.88 K, 19029 kPa, x2 = 0.0816	795.51 ± 0.45
342.88 K, 19057 kPa, x2 = 0.9216	740.82 ± 0.56
342.88 K, 19987 kPa, x2 = 0.0816	796.28 ± 0.45
342.88 K, 19996 kPa, x2 = 0.9216	750.81 ± 0.55
342.88 K, 21039 kPa, x2 = 0.0816	797.11 ± 0.45
342.88 K, 21039 kPa, x2 = 0.9216	760.88 ± 0.53
342.88 K, 21996 kPa, x2 = 0.0816	797.87 ± 0.45
342.88 K, 22026 kPa, x2 = 0.9216	769.6 ± 0.5
342.88 K, 22991 kPa, x2 = 0.0816	798.65 ± 0.45
342.88 K, 24056 kPa, x2 = 0.0816	799.48 ± 0.45
342.88 K, 25041 kPa, x2 = 0.0816	800.25 ± 0.45
342.89 K, 14024 kPa, x2 = 0.8573	720.89 ± 0.75
342.89 K, 15020 kPa, x2 = 0.8573	735.53 ± 0.57
342.89 K, 16007 kPa, x2 = 0.8573	747 ± 0.53
342.89 K, 17031 kPa, x2 = 0.8573	757.08 ± 0.52
342.89 K, 18025 kPa, x2 = 0.8573	765.71 ± 0.51
342.89 K, 19016 kPa, x2 = 0.8573	773.47 ± 0.5
342.89 K, 20036 kPa, x2 = 0.8573	780.77 ± 0.49
342.89 K, 21016 kPa, x2 = 0.8573	787.25 ± 0.49
342.89 K, 21989 kPa, x2 = 0.8573	793.31 ± 0.49
342.89 K, 23049 kPa, x2 = 0.8573	799.42 ± 0.49
342.89 K, 24035 kPa, x2 = 0.8573	804.78 ± 0.48
342.89 K, 24945 kPa, x2 = 0.8573	809.51 ± 0.48
342.95 K, 13102 kPa, x2 = 0.6054	801.79 ± 0.54
342.95 K, 14086 kPa, x2 = 0.6054	804.2 ± 0.45
342.95 K, 15021 kPa, x2 = 0.6054	806.46 ± 0.45
342.95 K, 16051 kPa, x2 = 0.6054	808.84 ± 0.45
342.95 K, 17053 kPa, x2 = 0.6054	811.1 ± 0.45
342.95 K, 18061 kPa, x2 = 0.6054	813.31 ± 0.45
342.95 K, 19049 kPa, x2 = 0.6054	815.42 ± 0.45
342.95 K, 20084 kPa, x2 = 0.6054	817.54 ± 0.45
342.95 K, 21075 kPa, x2 = 0.6054	819.56 ± 0.45
342.95 K, 22070 kPa, x2 = 0.6054	821.54 ± 0.45
342.95 K, 23069 kPa, x2 = 0.6054	823.48 ± 0.45
342.95 K, 24068 kPa, x2 = 0.6054	825.37 ± 0.45
342.95 K, 25106 kPa, x2 = 0.6054	827.29 ± 0.46
342.96 K, 7006 kPa, x2 = 0.1347	785.93 ± 0.44
342.96 K, 8027 kPa, x2 = 0.1347	786.83 ± 0.44
342.96 K, 9036 kPa, x2 = 0.1347	787.79 ± 0.44
342.96 K, 10053 kPa, x2 = 0.1347	788.74 ± 0.44
342.96 K, 11003 kPa, x2 = 0.1347	789.61 ± 0.44
342.96 K, 12025 kPa, x2 = 0.1347	790.55 ± 0.44
342.96 K, 13042 kPa, x2 = 0.1347	791.48 ± 0.44
342.96 K, 14006 kPa, x2 = 0.1347	792.33 ± 0.44
342.96 K, 15009 kPa, x2 = 0.1347	793.22 ± 0.44
342.96 K, 16036 kPa, x2 = 0.1347	794.12 ± 0.44
342.96 K, 17009 kPa, x2 = 0.1347	794.98 ± 0.44
342.96 K, 18011 kPa, x2 = 0.1347	795.84 ± 0.45
342.96 K, 19019 kPa, x2 = 0.1347	796.7 ± 0.45
342.96 K, 20016 kPa, x2 = 0.1347	797.55 ± 0.45
342.96 K, 20998 kPa, x2 = 0.1347	798.37 ± 0.45
342.96 K, 22010 kPa, x2 = 0.1347	799.2 ± 0.45
342.96 K, 23002 kPa, x2 = 0.1347	800.03 ± 0.45
342.96 K, 24085 kPa, x2 = 0.1347	800.92 ± 0.45
342.96 K, 25038 kPa, x2 = 0.1347	801.69 ± 0.45
352.71 K, 508 kPa, x2 = 0	768.15 ± 0.43
352.71 K, 1011 kPa, x2 = 0	768.66 ± 0.43
352.71 K, 1995 kPa, x2 = 0	769.61 ± 0.43
352.71 K, 3014 kPa, x2 = 0	770.57 ± 0.43
352.71 K, 3998 kPa, x2 = 0	771.49 ± 0.43
352.71 K, 5022 kPa, x2 = 0	772.45 ± 0.43
352.71 K, 6012 kPa, x2 = 0	773.35 ± 0.44
352.71 K, 7006 kPa, x2 = 0	774.26 ± 0.44
352.71 K, 8024 kPa, x2 = 0	775.17 ± 0.44
352.71 K, 9005 kPa, x2 = 0	776.05 ± 0.44
352.71 K, 10016 kPa, x2 = 0	776.94 ± 0.44
352.71 K, 11026 kPa, x2 = 0	777.81 ± 0.44
352.71 K, 12001 kPa, x2 = 0	778.65 ± 0.44
352.71 K, 13002 kPa, x2 = 0	779.5 ± 0.44
352.71 K, 14026 kPa, x2 = 0	780.35 ± 0.44
352.71 K, 15000 kPa, x2 = 0	781.18 ± 0.44
352.71 K, 16005 kPa, x2 = 0	781.98 ± 0.44
352.71 K, 17023 kPa, x2 = 0	782.81 ± 0.44
352.71 K, 18003 kPa, x2 = 0	783.59 ± 0.44
352.71 K, 19049 kPa, x2 = 0	784.43 ± 0.45
352.71 K, 20035 kPa, x2 = 0	785.2 ± 0.45
352.71 K, 21002 kPa, x2 = 0	785.96 ± 0.45
352.71 K, 21995 kPa, x2 = 0	786.73 ± 0.45
352.71 K, 23020 kPa, x2 = 0	787.52 ± 0.45
352.71 K, 24045 kPa, x2 = 0	788.32 ± 0.45
352.71 K, 25009 kPa, x2 = 0	789.05 ± 0.45
352.73 K, 17393 kPa, x2 = 0.9757	574.15 ± 0.83
352.73 K, 18036 kPa, x2 = 0.9757	591.88 ± 0.79
352.73 K, 19032 kPa, x2 = 0.9757	616.27 ± 0.74
352.73 K, 20013 kPa, x2 = 0.9757	637.17 ± 0.69
352.73 K, 21057 kPa, x2 = 0.9757	656.66 ± 0.66
352.73 K, 22011 kPa, x2 = 0.9757	672.48 ± 0.63
352.73 K, 23064 kPa, x2 = 0.9757	688.28 ± 0.61
352.73 K, 24053 kPa, x2 = 0.9757	701.67 ± 0.58
